# Measured values from PMC6010002, “Synthesis, pharmacology and molecular docking on multifunctional tacrine-ferulic acid hybrids as cholinesterase inhibitors against Alzheimer’s disease” (Journal of Enzyme Inhibition and Medicinal Chemistry, 2018).
# Where two headings read alike, the source gives them in different places.
# Assays:
# [1] = molecular target: T1, AChE (EC 3.1.1.7) from electric eel (Electrophorus electricus, UniProt O42275); experiment: biochemical; settings: for SI (selectivity index, AChE IC50/BuChE IC50): eeAChE IC50 / eqBuChE IC50; for IC50: eeAChE, mean ± SEM of triplicate independent experiments
# T1 construct: AChE (EC 3.1.1.7, Type VI-S, from electric eel, C3389); purchased Sigma-Aldrich C3389; host or cells: electric eel (natural source)
# Description: (§1) AChE (EC 3.1.1.7, Type VI-S, from electric eel, C3389) and BuChE (EC 3.1.1.8, from equine serum, C0663), 5,5’-dithiobis (2-nitrobenzoic acid) (DTNB, D218200), acetylthiocholine iodide (ATC, A5751) and butyrylthiocholine iodide (BTC, B3253) used as substrates were obtained from Sigma-Aldrich (St. Louis, MO).
# (§2) The inhibitory capacity of the synthesised compounds on AChE and BuChE biological activity in this paper were evaluated according to our previously reported method. Briefly, AChE/BuChE stock solution was diluted with 0.2 M phosphate buffer pH 8.0 to give 2.5 units/mL (for electrophorus electricus (eeAChE) and equine serum (eqBuChE)). ATC/BTC iodide solution (0.075 M) was dissolved in deionized water. […] The assay solution was prepared as follows: potassium dihydrogen phosphate (1.36 g, 10 mmol) was dissolved in 100 ml of water. The pH of the solution was then adjusted to 8.0 ± 0.1 with KOH. Stock solutions of the test samples were dissolved in ethanol to give a final concentration of 10 − 4^ M when diluted to the final volume of 3.32 ml. For each compound, a dilution series of five different concentrations 10 − 5–10 − 9^9 M were prepared.
# (§3) For measurement, a cuvette containing 3 mL of phosphate buffer, 100 μL of eeAChE or eqBuChE, 100 μL of DTNB, and 100 μL of the test compound solution was added in sequence. The reaction was initiated by adding 20 μL of ATC or BTC and the solution was mixed immediately. […] For the reference value, 100 μL of water was replaced for the test compound solution. For the blank control, additional 100 μL of water was also replaced for the enzyme solution. The measurement of each concentration was assayed in triplicate. GraphPad Prism 5 (GraphPad Software, Inc., La Jolla, CA) was used for data processing. The inhibition curve was fitted by plotting percentage enzyme activity (100% for the reference) versus the logarithm of test compound concentration. The half maximal inhibitory concentration (IC50) values were calculated according to the curve and the data were shown in mean ± SEM.
# (§4) Inhibitory activities were presented as IC50 (nM).
# [2] = molecular target: T2, BuChE (EC 3.1.1.8) from horse serum (Equus caballus, UniProt P81908); experiment: biochemical; settings: eqBuChE, mean ± SEM of triplicate independent experiments
# T2 construct: BuChE (EC 3.1.1.8, from equine serum, C0663); purchased Sigma-Aldrich C0663; host or cells: equine serum (natural source)
# Description: as §1, §2, §3, §4
# adult male ICR mice = format: in vivo; settings: mouse, in vivo
# Description: . Heparinised serum was obtained from the retrobulbar plexus 8, 22, and 36 h after the administration and were subjected to hepatotoxicity evaluation. The activity of aspartate aminotransferase (AST) and alanine aminotransferase (ALT), two indicators of liver damage, was determined by a commercial assay kit (EF551 and EF550 for ALT, EH027 and EF548 for AST, Wako, Japan). The data were analysed by Biochemical Analyzer (HITACHI 7020, Japan).
# Mice were sacrificed 1 h after the collection of retrobulbar blood and livers were removed for morphological studies by using the immunohistochemical method. Two 3 mm sections of each liver extending from the hilus to the margin of the left lateral lobe were isolated using ultra-thin semiautomatic microtome (Leica RM2245, Germany) and placed in 10% buffered formaldehyde immediately, fixed for two days, and embedded together in one paraffin block by using paraffin embedding station (Leica EG1150H, Germany). Subsequently, 5 μm sections were prepared from these paraffin blocks. They were deparaffinated and stained with hematoxylin and eosin (H&E) for histopathological examinations.
# HepG2 cells = settings: for Cell viability (% of vehicle): 24 h, MTT, mean ± SEM n = 3; for Antiproliferative activity on HepG2 cells (in words): MTT assay
# Description: To determine the possible drug-induced hepatotoxicity, 10d and 10g were selected for preliminary hepatotoxicity evaluation. Heparinised serum was obtained after the treatment of the compounds at 8, 22, and 36 h, respectively. […] Additionally, immunohistochemical staining was performed on the liver tissues for the histopathological study.
# Methods for Cell Viability Assay. The human hepatocellular HepG2 cells were […]
# Cells were seeded into 96-well plates at a density of 3
# 37 °C for the following experiments. For cytotoxicity test, cells were treated with 0.05- […]
# Cell viability was measured by 3-(4,5- dimethylthiazol-2-yl)-2,5-diphenyltetrazolium bromide (MTT) analysis. In brief, 15 µL of MTT was added into each well and incubated at 37 °C for 4 h. The […]
# viability was calculated and presented by the percentage of vehicle-treated group.
# [3] = system: scopolamine-induced cognition-impaired adult ICR mice; experiment: Morris water maze in scopolamine-induced cognition-impaired mice; format: in vivo; settings: 30 mg/kg oral, scopolamine 1 mg/kg i.p., mean ± SEM n = 6; for Latency to target: probe trial
# Description: Behavioral studies were performed using the Morris water maze[25] according to our method reported previously. Adult male imprinting control region (ICR) mice (8–10 weeks old, weight 20–25 g) were obtained from the Yangzhou University Medical Center (Yangzhou, China). All animal handling and experimental protocols were approved by the Institutional Animal Care and Use Committee of the China Pharmaceutical University. Scopolamine hydrobromide was purchased from Aladdin Reagents (S107418, Shanghai, China).
# A circular pool (120 cm in diameter, 60 cm height) which was fixed with an escape platform (10 cm diameter) and filled to a depth of 40 cm fresh water (kept at 25 °C) composed the water maze and this water maze placed in a lit room was used to evaluate the cognition function and memory capacity of mice according to our previously described method[24] . After five days of learning and memory training, a probe trial was performed on day 6. For the evaluation of cognitive function, each mouse was individually trained on a visible-platform (labeled by a small flag, 5 cm tall) for two days and was followed by a hidden-platform version (placed 1 cm below the surface of the water) of the water maze from day 3 to day 5. All mice were subjected to two training trials daily, each of which lasted for 90 s. The time for each mouse to find the platform (a successful escape) was recorded. […] On the last day (day 6), a probe trial was given to the mice in which the platform was removed from the pool and each mouse was allowed 90 s to search for the platform. The time the animals spent to reach the missing platform location and the number of times they crossed that location were recorded.
# Data for the time of escape latency, the swimming trajectory, and the number of visual platform crossings were recorded by Panlab SMART 3.0 (Panlab, S.L.U, Spain) and GraphPad Prism 5 was used to evaluate the level of memory retention.
# Aβ1–42 = molecular target: T3, Aβ1–42 (Homo sapiens, UniProt P05067); experiment: Inhibition of self-induced Aβ1–42 aggregation (Thioflavin T assay); format: biochemical; settings: ThT fluorescence, 24 h incubation, read-out: Inhibitory rate of compounds (25 μM) on self-induced Aβ1-42 aggregation
# T3 construct: aliquots of 2 μL of Aβ1–42 (AS-64129–05 Anaspec Inc.); purchased Anaspec Inc. AS-64129–05
# Description: Inhibitory effects of the compounds on self-induced Aβ1–42 aggregation were tested through a Thioflavin T (ThT)-(T3516, Sigma-Aldrich) binding assay.
# The calculation of the inhibitory rate of Aβ1–42 self-induced aggregation was performed as the following equation: (1 − IFi/IFc) × 100%. IFi and IFc were the fluorescence intensities measured in the presence and absence of inhibitors, respectively, after subtracting the background fluorescence of the 5 mM ThT solution. Each compound was measured in triplicate.
# A thioflavin T-based fluorometric assay was performed.
# T3 sequence (P05067 672-713): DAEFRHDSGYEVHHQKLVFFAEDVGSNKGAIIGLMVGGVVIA
# T2 sequence (P81908 whole entry): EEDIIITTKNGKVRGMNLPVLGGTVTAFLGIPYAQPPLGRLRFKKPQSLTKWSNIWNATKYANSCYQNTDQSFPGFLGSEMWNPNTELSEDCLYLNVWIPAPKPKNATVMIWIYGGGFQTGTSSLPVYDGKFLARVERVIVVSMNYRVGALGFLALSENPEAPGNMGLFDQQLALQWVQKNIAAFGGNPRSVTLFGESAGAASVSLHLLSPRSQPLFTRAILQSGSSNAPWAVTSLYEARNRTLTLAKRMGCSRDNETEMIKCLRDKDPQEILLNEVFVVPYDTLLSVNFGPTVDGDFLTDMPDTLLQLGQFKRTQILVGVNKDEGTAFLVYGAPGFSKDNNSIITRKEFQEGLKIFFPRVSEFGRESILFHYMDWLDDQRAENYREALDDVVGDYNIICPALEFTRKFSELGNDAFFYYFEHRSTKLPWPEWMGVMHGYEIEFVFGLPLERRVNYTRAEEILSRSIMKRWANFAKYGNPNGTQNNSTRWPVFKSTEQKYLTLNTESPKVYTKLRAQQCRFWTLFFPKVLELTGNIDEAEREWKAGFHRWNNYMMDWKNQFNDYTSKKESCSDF
# T1 sequence (O42275 24-633): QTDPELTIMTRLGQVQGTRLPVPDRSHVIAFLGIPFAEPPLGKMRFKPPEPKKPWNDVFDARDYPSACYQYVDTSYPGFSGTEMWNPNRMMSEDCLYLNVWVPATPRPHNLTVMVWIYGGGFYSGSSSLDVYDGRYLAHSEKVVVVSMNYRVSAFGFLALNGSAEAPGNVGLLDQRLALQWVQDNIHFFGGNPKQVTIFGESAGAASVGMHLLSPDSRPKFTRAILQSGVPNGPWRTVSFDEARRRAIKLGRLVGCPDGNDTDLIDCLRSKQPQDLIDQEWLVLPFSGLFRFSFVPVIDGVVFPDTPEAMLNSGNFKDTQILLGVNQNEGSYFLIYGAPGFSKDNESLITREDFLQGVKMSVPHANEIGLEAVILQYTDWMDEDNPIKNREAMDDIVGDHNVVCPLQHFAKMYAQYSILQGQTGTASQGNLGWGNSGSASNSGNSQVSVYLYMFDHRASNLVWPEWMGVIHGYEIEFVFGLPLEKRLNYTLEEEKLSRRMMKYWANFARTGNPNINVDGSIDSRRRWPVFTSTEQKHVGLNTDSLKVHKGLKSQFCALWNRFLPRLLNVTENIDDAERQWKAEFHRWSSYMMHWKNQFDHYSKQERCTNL
SMILES,"SI (selectivity index, AChE IC50/BuChE IC50) [1]",IC50 [1] [nM],IC50 [2] [nM],"Morphologic changes in liver (histopathology, HE staining) (adult male ICR mice)","Cell viability (% of vehicle) (HepG2 cells; HepG2, 0.05 µM)","Cell viability (% of vehicle) (HepG2 cells; HepG2, 0.1 µM)","Cell viability (% of vehicle) (HepG2 cells; HepG2, 0.5 µM)","Cell viability (% of vehicle) (HepG2 cells; HepG2, 2.5 µM)","Cell viability (% of vehicle) (HepG2 cells; HepG2, 5 µM)","Cell viability (% of vehicle) (HepG2 cells; HepG2, 50 µM)",Antiproliferative activity on HepG2 cells (in words) (HepG2 cells),Distance to target [3] [cm],Speed in virtual platform [3] [cm/s],Latency to target [3] [s],inhibition at 25 µM (Aβ1–42) [%]
"COc1cc(/C=C/C(=O)NCCNc2c3c(nc4ccccc24)CCCC3)ccc1OCc1ccc(Br)cc1 [Compound 10d, (E)-3–(4-((4-bromobenzyl)oxy)-3-methoxyphenyl)-N-(2-((1,2,3,4-tetrahydroacridin-9-yl)amino)ethyl)acrylamide]",0.7,49.5 ± 3.8,69.4 ± 13.4,did not cause adverse morphologic changes in liver,129.7 ± 7.5 % of vehicle,125.0 ± 2.3 % of vehicle,125.6 ± 2.1 % of vehicle,130.6 ± 2.2 % of vehicle,13.2 ± 2.3 % of vehicle,2.5 ± 0.3 % of vehicle,relatively strong toxic effects,628.95 ± 87.55,18.82 ± 5.36,19.08 ± 2.56,66.8
"COc1cc(/C=C/C(=O)NCCNc2c3c(nc4ccccc24)CCCC3)ccc1OCc1ccc(C)c(C)c1 [Compound 10g, (E)-3–(4-((3,4-dimethylbenzyl)oxy)-3-methoxyphenyl)-N-(2-((1,2,3,4-tetrahydroacridin-9-yl)amino)ethyl)acrylamide]",0.4,37,101 ± 15.5,did not cause adverse morphologic changes in liver,128.4 ± 5.6 % of vehicle,124.6 ± 1.7 % of vehicle,121.7 ± 3.5 % of vehicle,128.9 ± 4.1 % of vehicle,1.5 ± 0.1 % of vehicle,1.9 ± 0.3 % of vehicle,relatively strong toxic effects,612.85 ± 81.54,17.27 ± 3.39,24.73 ± 3.54,65.5
"COc1cc(/C=C/C(=O)NCCNc2c3c(nc4ccccc24)CCCC3)ccc1OCc1ccc(C#N)cc1 [Compound 10j, (E)-3–(4-((4-cyanobenzyl)oxy)-3-methoxyphenyl)-N-(2-((1,2,3,4-tetrahydroacridin-9-yl)amino)ethyl)acrylamide]",1.3,107 ± 29.9,79.8 ± 8.9,–,–,–,–,–,–,–,–,–,–,–,49.5
